Data set [1] concerns Drak2. Kind of data set: Drak2 protein levels in siRNA-transfected NIT-1 insulinoma cells by flow cytometry. The data set is classed as cell-based, mouse. The conditions noted are these: NIT-1 cells; for Drak2 protein upregulation stimulated by cytokines: 24 h (FIG. 10B); for Drak2 protein upregulation stimulated by FFA: siRNA transfected, cultured 24 h with FFA, intracellular Drak2 by flow cytometry (FIG. 2A). An excerpt: (§1) Drak2 Tg and WT islets were digested with 0.05% trypsin-EDTA to obtain single cell suspensions. The cells were fixed with 4% paraformaldehyde and permeabilized with 0.2% Triton X-100. They were stained with rabbit anti-Drak2 Ab (Abgent, San Diego, Calif.; 1:50 dilution) and anti-insulin mAb (Sigma, St. Louis, Mo.; 1:500 dilution). Subsequently, they were stained with FITC-conjugated sheep anti-rabbit antibody (Chemicon, Temecula, Calif.), and PE-conjugated goat anti-mouse antibody (Jackson Immunoresearch, West Grove, Pa.), and analyzed by 2-color flow cytometry. Dispersed islet cells or small interfering RNA (siRNA)-transfected NIT-1 cells were also analyzed for apoptosis by flow cytometry using FITC-annexin V staining (Murakami et al., 2004).
(§2) NIT-1 cells, derived from mouse insulinoma, were transfected with siRNA using Lipofectamine 2000 (Invitrogen, Burlington, Ontario) according to the manufacturer's instructions. For Drak2 siRNA, the oligonucleotide RNA sequences were CAUCCCUGAAGAUGGCAGCtt and GCUGCCAUCUUCAGGGAUGtt. The control was the scrambled sequence of said siRNA with following sequences: 5′CCCUAAGUGUAGGACGCACtt and 3′GUGCGUCCUACACUUAGGGtt. Single stranded RNA pairs were annealed by being incubated for 1 min at 900 C, and then cooled down to room temperature over 45 min. The final concentration of double-stranded siRNA was 20 μM for transfection.
(§3) Dispersed islet cells were fixed with 4% paraformaldehyde and permeabilized with 0.2% Triton X-100. For Drak2 and insulin detection, the cells were stained as described for confocal microscopy, and analyzed by 2-color flow cytometry. Dispersed islet cells or small interfering RNA (siRNA)-transfected NIT-1 cells were also analyzed for apoptosis by flow cytometry with FITC-annexin V staining (Murakami et al., 2004)).
(§4) NIT-1 cells, derived from mouse insulinoma, were transfected with siRNA using Lipofectamine 2000 (Invitrogen, Burlington, Ontario) according to the manufacturer's instructions. Two siRNAs specific for Drak2 were employed. For Drak2 siRNA #1162, the oligonucleotide RNA sequences were CAUCCCUGAAGAUGGCAGCtt and GCUGCCAUCUUCAGGGAUGtt. For Drak2 siRNA #592, the oligonucleotide RNA sequences were UAACAUUGUUCACCUUGAUtt and AUCAAGGUGAACAAUGUUAtt. The control siRNA was the scrambled sequence of siRNA #1162 with the following sequences: 5′CCCUAAGUGUAGGACGCACtt and 3′GUGCGUCCUACACUUAGGGtt. Single-stranded RNA pairs were annealed by incubation for 1 min at 900 C, and then cooled down to room temperature over 45 min. The final concentration of double-stranded siRNA was 10 nM for transfection.

For data set [2], the system named is human islets. Kind of data set: Inflammatory cytokine-induced apoptosis of human islets, annexin V flow cytometry. In kind it is cell-based. The conditions noted are these: TNF-a, IFN-g and IL1-b, 72 h (FIG. 19). Here is the method:
FIG. 19—Drak2 siRNA (designed based on the mouse Drak2 sequence) effectively protects human islets from inflammatory cytokine-induced apoptosis. Human islets were treated with cytokines (IFN-γ (1000 U/ml), IL-1β (0.5 ng/ml), TNF-α (200 ng/ml), 24 h later, they were transfected with a combination of 2 Drak2 siRNA (#592 and #1162, 10 nM each). At 72 h, the islets were harvested, dispersed and tested for annexin V expression by flow cytometry. The percentage of apoptotic cells (annexin V positive) is shown.
as §3
A general note: In flow cytometry, cells or beads pass a laser one at a time.

For data set [3], the system named is p70S6 kinase. Kind of data set: p70S6 kinase phosphorylation in NIT-1 cell lysates by immunoblotting. The data set is classed as cell-based, mouse. The conditions noted are these: NIT-1 cells, IFN-γ plus IL-1β or TNF-α plus IL-1β, siRNA transfected after 24 h, immunoblot after additional 24 h (FIG. 15B, 15C). Here is the method:
NIT-1 cells were transiently transfected with pCEP4-HA-Drak2 or empty vector pCEP4-HA. After 48 h, the cells were lysed and resolved in 10% SDS-PAGE (60 μg/lane) followed by immunoblotting. For HA-Drak2 expression, membrane was blotted with mouse anti-HA mAb (Santa Cruz, Santa Cruz, Calif.; 1:1000 dilution) followed by horse radish peroxidase (HRP)-conjugated sheep anti-mouse IgG (GE Health; 1:2000 dilution). To assess p70S6 kinase phosphorylation, the membrane was blotted with mouse anti-phospho-p70S6 kinase (Thr389) Ab (Cell Signaling, Danvers, Mass.; 1:1000 dilution) followed by HRP-conjugated sheep anti-mouse IgG (GE Health; 1:2000 dilution). The membrane was also blotted with rabbit anti-p70S6 kinase Ab (Cell Signaling, Danvers, Mass.; 1:1000 dilution) followed by HRP-conjugated donkey anti-rabbit IgG to show similar total p70S6 kinase protein. In some experiments, NIT-1 cells were stimulated with IFN-γ (1000 U/ml) plus IL-1β (0.5 ng/ml), or TNF-α (200 ng/ml) plus IL-1β (0.5 ng/ml). Twenty four hours later, they were transfected with two different Drak2 siRNAs (#592 and #1162), or with a control siRNA. After additional 24 hour, phospho-p70S6 kinase and total p70S6 kinase in the cell lysates were detected by immunoblotting as described above.
For orientation: Immunoblotting shows a protein as a band on a membrane.

Data set [4] concerns NIT-1 cells. Kind of data set: Apoptosis of NIT-1 cells by annexin V staining and flow cytometry. In kind it is cell-based, mouse. The conditions noted are these: for FFA-induced apoptosis (annexin V): cultured 24 h with FFA (FIG. 2B).
From the text: as §1, §2, §3, §4
NIT-1 cells were treated with IFN-g+IL-1b for 72 hours, with or without […] rapamycin. Drak2 siRNA were transfected to some cells at 24 hour, the apoptosis of cells were measured with Annexin-v staining.

The mark [5] stands for this setting: IFN-γ plus IL-1β or TNF-α plus IL-1β.

Turning to “control siRNA: scrambled sequence of siRNA #1162: 5′CCCUAAGUGUAGGACGCACtt and 3′GUGCGUCCUACACUUAGGGtt (SEQ ID Nos: 9 and 10) (chain 1 CCCUAAGUGUAGGACGCACTT; chain 2 GUGCGUCCUACACUUAGGGTT; RNA strands with 3' tt overhangs, overhang chemistry not given here, further chemistry not given here) [reference compound]”, the “Drak2 protein upregulation stimulated by cytokines” value in data set [1] (setting [5]) is recorded as “no effect”. Further, in data set [1] (IFN-γ plus IL-1β or TNF-α plus IL-1β, siRNA transfected after 24 h, assayed at 48 h (FIG. 15A)), the “cytokine-induced Drak2 protein expression” value is recorded as “no effect”. Besides, the “Drak2 protein upregulation stimulated by FFA” value in data set [1] is “no effect”. In data set [2], the “effect on cytokine-induced apoptosis of human islets” value is listed as “no effect”. The “cytokine-induced p70S6 kinase phosphorylation (phospho versus total p70S6 kinase)” value in data set [3] is listed as “no effect”.

Consider “#1162: Drak2 siRNA; oligonucleotide RNA sequences CAUCCCUGAAGAUGGCAGCtt and GCUGCCAUCUUCAGGGAUGtt (SEQ ID Nos: 5 and 6)”, for which the “Drak2 protein upregulation stimulated by cytokines” value in data set [1] (setting [5]) is recorded as “prevented Drak2 protein upregulation”. Further, in data set [1], the “Drak2 protein upregulation stimulated by FFA” value is “inhibited Drak2 protein upregulation”. The “cytokine-induced p70S6 kinase phosphorylation (phospho versus total p70S6 kinase)” value in data set [3] is given as “inhibited p70S6 kinase phosphorylation”. Also, in data set [4] (siRNA transfected), the “FFA-induced apoptosis (annexin V)” value is listed as “prevented FFA-induced apoptosis”.

For the substance “#592: Drak2 siRNA; oligonucleotide RNA sequences UAACAUUGUUCACCUUGAUtt and AUCAAGGUGAACAAUGUUAtt (SEQ ID Nos:7 and 8) (chain 1 UAACAUUGUUCACCUUGAUTT; chain 2 AUCAAGGUGAACAAUGUUATT; chemistry not fully specified)”, the “Drak2 protein upregulation stimulated by FFA” value in data set [1] is listed as “inhibited Drak2 protein upregulation”. In addition, the “cytokine-induced p70S6 kinase phosphorylation (phospho versus total p70S6 kinase)” value in data set [3] is reported as “inhibited p70S6 kinase phosphorylation”. Also, in data set [4] (siRNA transfected), the “FFA-induced apoptosis (annexin V)” value is given as “prevented FFA-induced apoptosis”.

As for “Drak2 siRNA: Drak2 siRNA without number; Example 4 sequences CAUCCCUGAAGAUGGCAGCtt and GCUGCCAUCUUCAGGGAUGtt, the same as #1162 (GCUGCCAUCUUCAGGGAUGTT; RNA strands with 3' tt overhangs, overhang chemistry not given here, further chemistry not given here)”, the “apoptosis induced by IFN-γ+IL-1β (annexin V)” value in data set [4] (72 h, rapamycin 250 nM, Drak2 siRNA transfected at 24 h, alone or combined (FIG. 18)) is listed as “reduce apoptosis”. Also, the “cytokine-induced apoptosis (annexin V)” value in data set [4] (siRNA transfected, IFN-γ plus IL-1β or TNF-α plus IL-1β, 24 h (FIG. 10C)) is “dampened”.

For the origin of these results see US20100183597A1, “DRAK2 EXPRESSION IS ASSOCIATED WITH DIABETES” (priority 2007, published 2010).
